The values below come from PubChem BioAssay AID1259407 (Chemical Carcinogenesis Research Information System (CCRIS), 2018).

In this data set the test system is CCRIS mutagenicity, Ames/micronucleus/aberration tests. Nature of the data set: CCRIS mutagenicity studies.
Where [1] appears, read: Test System: AMES SALMONELLA TYPHIMURIUM, Strain/Indicator: TA98, Metabolic Activation: NONE, Method: STANDARD PLATE.
Where [2] appears, read: Test System: AMES SALMONELLA TYPHIMURIUM, Strain/Indicator: TA98, Metabolic Activation: RAT, LIVER, S-9, AROCLOR 1254, Method: STANDARD PLATE.
The mark [3] stands for this setting: Test System: AMES SALMONELLA TYPHIMURIUM, Strain/Indicator: TA100, Metabolic Activation: NONE, Method: STANDARD PLATE.
[4] abbreviates: Test System: AMES SALMONELLA TYPHIMURIUM, Strain/Indicator: TA100, Metabolic Activation: RAT, LIVER, S-9, AROCLOR 1254, Method: STANDARD PLATE.
Setting [5] is: Test System: AMES SALMONELLA TYPHIMURIUM, Strain/Indicator: TA98, Metabolic Activation: NONE, Method: PREINCUBATION
[6] abbreviates: Test System: AMES SALMONELLA TYPHIMURIUM, Strain/Indicator: TA100, Metabolic Activation: NONE, Method: PREINCUBATION

Activity calls are given as the source filed them. No rule for the calls is given here.

In the case of `ClC1(Cl)[C@H](c2ccccc2)[C@@H]1c1ccccc1`, the mutagenic call (Test System: CHINESE HAMSTER V-79, Strain/Indicator: V-79 (HPRT)/6-THIOGUANINE, Metabolic Activation: NONE) was “inactive; negative”.
With `O=[N+]([O-])c1ccc2c3cccc4cccc(c5c([N+](=O)[O-])ccc1c25)c43`, the mutagenic call is “active; positive” (Test System: AMES SALMONELLA TYPHIMURIUM, Strain/Indicator: TA98(1,8-DNP6), Metabolic Activation: NONE, Method: STANDARD PLATE); “active; positive” (Test System: AMES SALMONELLA TYPHIMURIUM, Strain/Indicator: TA98(NR), Metabolic Activation: NONE, Method: STANDARD PLATE); “active; positive” under setting [1]; “active; positive” (Test System: AMES SALMONELLA TYPHIMURIUM, Strain/Indicator: TA98, Metabolic Activation: NONE, Method: STANDARD PLATE (ANAEROBIC)); “active; positive” under setting [2]; “inactive; negative” under setting [3]. Under setting [4], the mutagenic call is “active; positive”.
Turning to `Cc1cc(N)c(S(=O)(=O)O)cc1Cl`, the mutagenic call was “inactive; negative” under setting [5]; “inactive; negative” (Test System: AMES SALMONELLA TYPHIMURIUM, Strain/Indicator: TA98, Metabolic Activation: RAT, LIVER, S-9, KC 500, Method: PREINCUBATION); “inactive; negative” under setting [6]; “inactive; negative” (Test System: AMES SALMONELLA TYPHIMURIUM, Strain/Indicator: TA100, Metabolic Activation: RAT, LIVER, S-9, KC 500, Method: PREINCUBATION); “inactive; negative” (Test System: AMES SALMONELLA TYPHIMURIUM, Strain/Indicator: TA1535, Metabolic Activation: NONE, Method: PREINCUBATION); “inactive; negative” (Test System: AMES SALMONELLA TYPHIMURIUM, Strain/Indicator: TA1535, Metabolic Activation: RAT, LIVER, S-9, KC 500, Method: PREINCUBATION). Further, the mutagenic call is “inactive; negative” (Test System: AMES SALMONELLA TYPHIMURIUM, Strain/Indicator: TA1537, Metabolic Activation: NONE, Method: PREINCUBATION); “inactive; negative” (Test System: AMES SALMONELLA TYPHIMURIUM, Strain/Indicator: TA1537, Metabolic Activation: RAT, LIVER, S-9, KC 500, Method: PREINCUBATION); “inactive; negative” (Test System: AMES SALMONELLA TYPHIMURIUM, Strain/Indicator: TA1538, Metabolic Activation: NONE, Method: PREINCUBATION); “inactive; negative” (Test System: AMES SALMONELLA TYPHIMURIUM, Strain/Indicator: TA1538, Metabolic Activation: RAT, LIVER, S-9, KC 500, Method: PREINCUBATION); “inactive; negative” (Test System: E. COLI, Strain/Indicator: WP2 UVRA, Metabolic Activation: NONE, Method: PREINCUBATION); “inactive; negative” (Test System: E. COLI, Strain/Indicator: WP2 UVRA, Metabolic Activation: RAT, LIVER, S-9, KC 500, Method: PREINCUBATION).
Turning to `ClC(Cl)Cl`, the mutagenic call is “inactive; negative” (Test System: AMES SALMONELLA TYPHIMURIUM, Strain/Indicator: RSJ100, Metabolic Activation: NONE, Method: PREINCUBATION); “inactive; negative” (Test System: AMES SALMONELLA TYPHIMURIUM, Strain/Indicator: RSJ100, Metabolic Activation: RAT LIVER S-9, Method: PREINCUBATION); “inactive; negative” under setting [5]; “active; positive” under setting [1]; “inactive; negative” (Test System: AMES SALMONELLA TYPHIMURIUM, Strain/Indicator: TA98, Metabolic Activation: RAT LIVER S-9, Method: PREINCUBATION); “active; positive” under setting [2]. Moreover, the mutagenic call runs as follows: (Test System: AMES SALMONELLA TYPHIMURIUM, Strain/Indicator: TA100, Metabolic Activation: NONE, Method: FLUCTUATION TEST) “inactive; negative”; under setting [6], “inactive; negative”; under setting [3], “active; positive”; (Test System: AMES SALMONELLA TYPHIMURIUM, Strain/Indicator: TA100, Metabolic Activation: RAT LIVER S-9, Method: PREINCUBATION) “inactive; negative”; (Test System: AMES SALMONELLA TYPHIMURIUM, Strain/Indicator: TA100, Metabolic Activation: RAT, LIVER, S-9, AROCLOR 1254, Method: FLUCTUATION TEST) “inactive; negative”; under setting [4], “active; positive”. Also, the mutagenic call (Test System: AMES SALMONELLA TYPHIMURIUM, Strain/Indicator: TA1535 (GST-), Metabolic Activation: NONE, Method: STANDARD PLATE) is “inactive; negative”; the mutagenic call (Test System: AMES SALMONELLA TYPHIMURIUM, Strain/Indicator: TA1535, Metabolic Activation: RAT, LIVER, S-9, AROCLOR 1254, Method: STANDARD PLATE) was “active; positive”; the mutagenic call (Test System: AMES SALMONELLA TYPHIMURIUM, Strain/Indicator: TA1537, Metabolic Activation: NONE, Method: STANDARD PLATE) is “active; positive”; the mutagenic call (Test System: AMES SALMONELLA TYPHIMURIUM, Strain/Indicator: TA1537, Metabolic Activation: RAT, LIVER, S-9, AROCLOR 1254, Method: STANDARD PLATE) was “active; positive”; the mutagenic call (Test System: Ames Salmonella typhimurium, Strain/Indicator: TA98, Metabolic Activation: None, Method: Gas exposure method) is “inactive; negative”; the mutagenic call (Test System: Ames Salmonella typhimurium, Strain/Indicator: TA98, Metabolic Activation: Rat, Liver, S9, Sodium phenobarbital and 5,6-benzoflavone (10%), Method: Gas exposure method) is “inactive; negative”. For the same molecule, the mutagenic call is, setting by setting: (Test System: Ames Salmonella typhimurium, Strain/Indicator: TA100, Metabolic Activation: None, Method: Gas exposure method) “inactive; negative”; (Test System: Ames Salmonella typhimurium, Strain/Indicator: TA100, Metabolic Activation: Rat, Liver, S9, Sodium phenobarbital and 5,6-benzoflavone (10%), Method: Gas exposure method) “inactive; negative”; (Test System: Ames Salmonella typhimurium, Strain/Indicator: TA1535, Metabolic Activation: None, Method: Gas exposure method) “inactive; negative”; (Test System: Ames Salmonella typhimurium, Strain/Indicator: TA1535, Metabolic Activation: Rat, Liver, S9, Sodium phenobarbital and 5,6-benzoflavone (10%), Method: Gas exposure method) “inactive; negative”; (Test System: Ames Salmonella typhimurium, Strain/Indicator: TA1537, Metabolic Activation: None, Method: Gas exposure method) “inactive; negative”; (Test System: Ames Salmonella typhimurium, Strain/Indicator: TA1537, Metabolic Activation: Rat, Liver, S9, Sodium phenobarbital and 5,6-benzoflavone (10%), Method: Gas exposure method) “inactive; negative”. In addition, the mutagenic call by setting is: (Test System: CHINESE HAMSTER V-79, Strain/Indicator: V-79/8-AZAGUANINE, Metabolic Activation: NONE, Method: SUSPENSION/PLATE) “active; positive”; (Test System: CHINESE HAMSTER V-79, Strain/Indicator: V-79/OUABAIN, Metabolic Activation: NONE, Method: SUSPENSION/PLATE) “inactive; negative”; (Test System: E. coli, Strain/Indicator: WP2/pKM101, Metabolic Activation: None, Method: Gas exposure method) “inactive; negative (two experimental trials)”; (Test System: E. coli, Strain/Indicator: WP2/pKM101, Metabolic Activation: Rat, Liver, S9, Sodium phenobarbital and 5,6-benzoflavone (10%) with glutathione, Method: Gas exposure method) “inactive; negative (two experimental trials)”; (Test System: E. coli, Strain/Indicator: WP2/pKM101, Metabolic Activation: Rat, Liver, S9, Sodium phenobarbital and 5,6-benzoflavone (10%) without glutathione, Method: Gas exposure method) “inactive; negative (two experimental trials)”; (Test System: E. coli, Strain/Indicator: WP2uvrA/pKM101, Metabolic Activation: None, Method: Gas exposure method) “inactive; negative”. The mutagenic call by setting is: (Test System: E. coli, Strain/Indicator: WP2uvrA/pKM101, Metabolic Activation: Rat, Liver, S9, Sodium phenobarbital and 5,6-benzoflavone (10%), Method: Gas exposure method) “inactive; negative”; (Test System: E.COLI, Strain/Indicator: WP2UVRA/PKM101, Metabolic Activation: NONE, Method: GAS EXPOSURE) “inactive; negative”; (Test System: E.COLI, Strain/Indicator: WP2UVRA/PKM101, Metabolic Activation: RAT LIVER S-9, PHENOBARBITOL AND 5,6-BENZOFLAVONE, GLUTATHIONE-SUPPLEMENTED, Method: GAS EXPOSURE) “active; positive”; (Test System: E.COLI, Strain/Indicator: WP2UVRA/PKM101, Metabolic Activation: RAT LIVER S-9, PHENOBARBITOL AND 5,6-BENZOFLAVONE, Method: GAS EXPOSURE) “inactive; negative”; (Test System: MOUSE LYMPHOMA, Strain/Indicator: L5178Y (TK+/TK-), Metabolic Activation: NONE, Method: SUSPENSION/PLATE) “inactive; negative”; (Test System: MOUSE LYMPHOMA, Strain/Indicator: L5178Y (TK+/TK-), Metabolic Activation: RAT, LIVER, S-9, AROCLOR 1254, Method: SUSPENSION/PLATE) “active; positive”. In addition, the mutagenic call (Test System: UDS MOUSE HEPATOCYTES, Strain/Indicator: THY INCORP, Metabolic Activation: NONE, Method: AUTORADIOGRAPHY) is “inactive; negative”.
